Laboratory results reported in patent publication US20110294794A1, “TREATMENT OF PROTEINOPATHIES USING A FARNESYL TRANSFERASE INHIBITOR” (Link Medicine Corporation, priority 2008, published 2011).
Entries after “also recorded” stand apart in the source; their conditions may differ.

Tests used:
[1] = system: Aβ; assay: h-APPsl transgenic mouse, Aβ immunoreactivity and extracted Aβ; type: in vivo; conditions: 0.9 mg/kg once every 24 hr, three months
[2] = system: LC3-II; assay: LC3-II protein level (autophagic flux) in SH-SY5Y cells with or without bafilomycin A1; type: cell-based, human
Text: Data are represented as mean+/−SEM with statistical significance by paired student's t-test (n=4, p<0.05).
The observed increase in LC3-positive autophagosomes could result, in principle, from either an increased flux through the autophagy pathway or decreased autophagosome degradation (Pankiv, S., et al. J Biol Chem 282, 24131-24145 (2007); Kamada, Y., et al. J Cell Biol 150, 1507-1513 (2000)). […] In order to ascertain an increase in autophagic flux, cells were co-treated with LNK-754-TS and an inhibitor of autophagosome-lysosome fusion, bafilomycin A1 (10 nM). Bafilomycin treatment alone caused a 100% increase in the amount of LC3-II, consistent with the fact that it inhibits autophagosome degradation (FIG. 8c).
The mechanism of autophagy stimulation by LNK-754-TS appears distinct from that of the drug rapamycin. Rapamycin is a well-characterized autophagy stimulator that acts through inhibition of mTOR, a kinase involved in nutrient signaling and regulation of cell growth and survival. […] To further contrast the mechanism of autophagy stimulation by LNK-754-TS to that of rapamycin, a collection of mRNA transcripts of autophagy proteins were measured (FIG. 8d). Selected mRNAs from untreated SH-SY5Y cells were compared to mRNAs from cells treated with LNK-754-TS (100 nM), tipifarnib (100 nM), or rapamycin (1 μM).

[3] = system: α-synuclein; assay: Masliah D-line human WT α-synuclein transgenic mouse, α-synuclein immunoreactivity / ELISA; type: in vivo; conditions: for α-synuclein deposition in cortex and hippocampus: three months (FIG. 9a); for number of α-synuclein positive neurons in the brain: higher-dose trial (FIG. 2A)
Procedure: Animals and treatments: Male and female human WT alpha-synuclein over-expressing transgenic mice^32 at 6 months of age were given vehicle (10% beta-cyclodextrin) or LNK-754-TS (0.09, 0.9 and 9 mg/kg) per oral gavage twice daily for 3 months or animals at 7 months of age were given vehicle (2.5% beta-cyclodextrin) or LNK-754-TS (2 mg/kg) once every three days for 3 months. Male and female TAU transgenic mice expressing TAU441 bearing the missense mutations V337M^50 and R406W under the control of the murine Thy-1 promoter with a CB6xC57BL/6 background were 5 months old at the time when the oral treatment for three months with LNK-754-TS (0.9 and 0.09 mg/kg) as well as vehicle (2.5% beta-cyclodextrin) was started. Female human APP/PS1 (APP (London V7171)/PS1(A246E)) over-expressing transgenic mice were treated with LNK-754-TS (0.9 mg/kg) or vehicle (2.5% beta-cyclodextrin) for 2 months or 12 days.
Immunohistochemistry and quantification of stained cells: For evaluation of α-synuclein immunoreactivity (IR), 5 sagittal cryo-cut sections (10 μm slice thickness) from five different layers were used for counting of IR cells in the cortex and hippocampus. Brain sections were stained with a monoclonal human α-synuclein specific antibody (Alexis®; Cat# 804-258-L001; dilution 1:5), followed by a secondary Ab Cy 2-Goat Anti-Rat (Jackson ImmunoResearch®; dilution 1:200). IR positive cells were quantified using specialized image analysis software (Image Pro Plus, version 4.5.1.29). For Tau transgenic animals, 5 μm thick coronal paraffin sections were stained with the monoclonal mouse anti-human TAU-antibodies (AT180—1:100; HT—1:500) and visualized using an anti-mouse Cy3 secondary antibody (1:500, Jackson laboratories®). Images were evaluated with ImageProPlus (version 6.2) image analysis software. For APP/PS1 transgenic animals sagittal hemisections (40 μm) were collected and processed for Aβ immunohistochemistry using an 6E10 antibody, Thioflavin-S staining Primary antibodies were detected by the ABC method.
ELISA quantification of α-Synuclein in the α-Synuclein transgenic animals: Brain homogenate was centrifuged and the supernatant saved as fraction F1. The pellet was washed then resuspended and saved as fraction F2. Plates (Nunc, 464718) were coated with SYN-1 (1:1000, BD Transduction Labs, 610787). Monomeric recombinant α-synuclein was included as an internal standard. Biotinylated antibody FL-140 (1:300, Santa Cruz Biotechnology, sc-10717-B) and ExtrAvidin-Alkaline phosphatase (3:5000, Sigma, E2636) was added followed by pNPP substrate solution (Sigma, N1891). Raw absorbance (405 nm) was then normalized to the total protein concentration of each sample. In the APP/PS1 transgenic animal, brains were homogenized and the supernatant, Faction 1, was separated from the pellet. The pellets were further processed with addition of NP40 and Triton X-100. The supernatant was separated from the pellet as the insoluble membrane, Fraction 2, and was dissolved in 8M Guanidine. To quantify the amount of human Aβ-40 and Aβ-42, ELISA kits were used (The Genetics Company, Zurich, Switzerland).
In FIG. 2 is shown efficacy data for LNK-754-TS in the Masliah D-line transgenic α-synuclein mouse (an accepted model of synucleinopathies). Two trials are shown, the first (FIG. 2A) at higher doses of LNK-754-TS: 45 mg/kg and 9 mg/kg. […] The second trial (FIG. 2B) explores the low dose range for efficacy in the α-synuclein models. […]
After dosing with LNK-754-TS for three months (twice daily at 0.09 mg/kg or 0.9 mg/kg), α-synuclein accumulation in the brain was analyzed by immunohistochemical (human specific α-synuclein immunoreactivity) and biochemical (α-synuclein ELISA) means. […]

[4] = three-month dosing trial (FIG. 9c)
[5] = twice daily at 0.09 mg/kg or 0.9 mg/kg, three months

C#Cc1cccc(-c2cc(=O)n(C)c3ccc([C@](O)(c4ccc(Cl)cc4)c4cncn4C)cc23)c1 [LNK-754-TS, (R)-6-[(4-chlorophenyl)-hydroxyl-(1-methyl-1-H-imidazol-5-yl)-methyl]-4-(3-ethynylphenyl)-1-methyl-2-(1H)-quinonlinone (2S,3S)-dihydroxybutanedioate]
cortical Aβ immunoreactivity and Aβ extracted in the insoluble fractions [1]: did not significantly reduce
LC3-II protein level ([2]; 100 nM in the presence of Bafilomycin A1 (10 nM)): increased
accumulation of LC3-I or LC3-II ([2]; treatment alone, without bafilomycin): did not cause accumulation
α-synuclein deposition in cortex and hippocampus ([3]; 0.09 mg/kg twice every 24 hr): halts deposition
α-synuclein deposition in cortex and hippocampus ([3]; 0.9 mg/kg twice every 24 hr): halts deposition
cortical α-synuclein immunoreactivity vs. baseline and vehicle ([3]; 2 mg/kg once every 72 hr, three months (FIG. 9b)): significantly lower; also recorded: significantly reduces
number of α-synuclein positive neurons in the brain ([3]; 9 mg/kg PO BID 3 months): significant reduction
number of α-synuclein IR cells in the hippocampus vs. saline ([3]; 9 mg/kg group, PO BID 3 months, lower-dose trial (FIG. 2B)): significance level was not reached
number of α-synuclein positive neurons in the brain ([3]; 45 mg/kg PO BID 3 months): not significantly effective
efficacious dose in the α-synuclein transgenic mouse ([3]; PO BID 3 months): ≤ 9 mg/kg
number of α-synuclein IR cells in the hippocampus vs. saline ([3]; all applied dosages except 9 mg/kg, PO BID 3 months (FIG. 2B)): significant decrease
effect on neuronal architecture (NeuN) [3, 4]: lack of effect
reduction of α-synuclein immunoreactivity, representative hippocampal slices [3, 4]: ca. 50%
astrocytosis: GFAP staining [3, 5]: unchanged
drug-dependent toxicity [3, 5]: None of the treated animals showed any evidence
neuronal loss: NeuN staining and brain volume [3, 5]: unchanged
synaptic damage: synaptophysin staining [3, 5]: unchanged
α-synuclein accumulation in the brain (immunoreactivity and ELISA) [3, 5]: clearly reduced
